Data taken from US12501864B2 (priority 2020, dated 2025).
Counter-ions that a name gives are not always drawn.

Details: in vivo

O=C1OC2(c3ccc(O)cc3Oc3cc(O)ccc32)c2ccccc21 [Fluorescein, fluorescein disodium salt]
distribution by infection level: greater in trees with lower infection levels compared to trees with high infection levels | distribution in fruits vs leaves: higher in olive fruits than leaves | distribution throughout the tree: distributed evenly throughout the tree horizontally and vertically to all the sectors measured
